{
  "source": "patent US8617286B2",
  "about": "“Method for increasing crop yield” (priority 2010, dated 2013)",
  "origin": "cited, not measured here",
  "tested_on": "nitrification of ammonia nitrogen into nitrate",
  "details": "general statement, no test described",
  "data": [
    {"compound": "N#CN=C(N)N", "note": "[DCD, dicyandiamide]", "values": [
      {"measurement": "slowing of nitrification of ammonia nitrogen into nitrate", "result": "about 80%"}
    ]}
  ]
}
